{"source": "patent US7662863B2", "about": "“Therapeutic agent for the use in reducing alcohol intoxication and reducing or eliminating the negative side effects associated with alcohol ingestion” (priority 2003, dated 2010)", "key": {"hangover symptoms": {"test_system": "hangover symptoms", "experiment": "Subject questionnaire on hangover symptoms and overall feelings after alcohol consumption, glucarate versus placebo", "assay_type": "in vivo, human", "settings": "twenty subjects, questionnaire 12-14 hours after each occasion", "source_text": "(§1) Twenty subjects, currently taking no form of d-glucarate, were recruited for the evaluation. On two separate occasions (at least 5 days apart) the subjects voluntarily consumed alcoholic beverages. The amount ingested was at their discretion, however it was the exact same about on both occasions and roughly over the same duration (+/−½ hour).\n(§2) On the first occasion, the subject was asked to take a placebo, while on the second occasion the subject was asked to take d-glucarate. The subjects were not informed what they were taking on either occasion, or of the difference between the placebo and chemical compound.\n(§3) On the second occasion 1000 mg of Potassium Hydrogen Glucarate was administered before alcohol consumption, then 500 mg after alcohol consumption, then 1000 mg 8 hours later.\nReferring to FIG. 2, 12-14 hours after each occasion the subjects filled out the questionnaire to reflect each subject's observation of hangover symptoms. A 1 on the scale represents the most severe of symptoms, and a 5 represents neutral feeling or no symptom. The black circle indicates the average on the 20 subjects studied.\nReferring to FIG. 3, the last parameter measured was the subjects overall feelings, a rating of 1 being the most unpleasant to a rating of 5 representing the most pleasant of each subject's typical feeling."}, "[1]": {"experiment": "Blood alcohol level (BAC test strip) in human subjects after alcohol consumption, glucarate versus placebo", "assay_type": "in vivo", "settings": "twenty subjects", "source_text": "as §1, §2\nOn the first occasion the placebo was administered prior to alcohol ingestion, after alcohol ingestion then 8 hours following ingestion.\nA BAC was used to determine the Blood alcohol level after consumption then 8 hours later.\nas §3\nA BAC test strip was used to determine the Blood alcohol level after consumption then 8 hours later."}}}
{"smiles": "O=C(O)[C@@H](O)[C@@H](O)[C@H](O)[C@@H](O)C(=O)[O-].[K+]", "note": "[glucarate compound, Potassium Hydrogen Glucarate]", "values": [{"measurement": "hangover symptoms and overall feelings, average index on scale 1-5", "setting": "hangover symptoms", "result": "reduced the subjects' hangover tendencies"}, {"measurement": "decrease in the total level of recirculating alcohol relative to a placebo", "setting": "[1]; after rest and a duration of 8 hours, 1000 mg before and 500 mg after alcohol consumption", "result": 55, "unit": "%"}, {"measurement": "reduction in the amount of alcohol recirculating within the blood stream relative to a placebo", "setting": "[1]; immediately after alcohol consumption, 1000 mg before alcohol consumption, oral", "result": 18, "unit": "%"}]}
